Data on seven molecules can be found in publication PMC8258795 (Computational and Structural Biotechnology Journal, 2021).

For series [1] the following is noted: cited from earlier work; for BBB Permeable: prediction confirmed or corrected by literature.
Series [2] addresses T1, LRRK2 G2019S (Homo sapiens, UniProt Q5S007, G2019S). Nature of the series: LRRK2 G2019S kinase activity inhibition, 33P-ATP P81 filter-binding (Reaction Biology). It is filed as biochemical. The method, then:
(§1) The six hit compounds from the virtual screening were ordered from Selleckchem (Houston, Texas, USA). […] Stocks of all compounds were shipped to Reaction Biology Corporation (Malvern, Pennsylvania, USA) and Eurofins DiscoverX (Fremont, California, USA) for IC50 and Kd determination, respectively. The IC50 and Kd assays were performed as service by the companies.
Compounds were dissolved and diluted in 100% DMSO. […] Compounds were delivered into the reaction mixture. After a 20 min incubation, ^33P-ATP was added to a final concentration of 10 μM to initiate the reaction. Reactions were carried out for 2 h at room temperature. The final enzyme and substrate concentrations were 20 nM and 20 μM, respectively. Kinase activity was detected by the P81 filter-binding method. The whole procedure is also described in [40].
(§2) A specific challenge to our drug repositioning approach was the use of a homolog structure as template instead of a LRRK2 structure. To validate the virtual screening results, all six top candidates were tested for in vitro inhibition of LRRK2 kinase activity.

Series [3] has as its target T1, LRRK2 G2019S. In words: KINOMEscan competition binding assay (Eurofins DiscoverX). The settings on record: competition with active-site directed ligand, duplicates. The method, then:
as §1
The compounds were tested at 11 different concentrations in duplicates with 3-fold serial dilution starting at 100 μM. Compounds were dissolved and diluted in 100% DMSO. […] Shortly, streptavidin-coated magnetic beads were treated with the biotinylated competitive ligand for 30 min at room temperature. The liganded beads were blocked with excess biotin and washed with blocking buffer (SeaBlock (Pierce), 1% BSA, 0.05% Tween 20, 1 mM DTT) to remove unbound ligand and to reduce non-specific binding. […] The kinase concentration in the eluates was measured by qPCR.
as §2

[4] abbreviates: peptide substrate, 10 μM ATP, duplicates.

What is called pIC50 is −log10 of the IC50, conventionally taken in molar units. Lower therefore signals a large IC50. One may read the pKd as the negative decadic logarithm of the Kd, by convention in mol/L. Read a high pKd as a low Kd.

Molecules are shown by their SMILES. pIC50, pKd: −log10 of the molar value.

Turning to `C[C@@H](Oc1cc(-c2cnn(C3CCNCC3)c2)cnc1N)c1c(Cl)ccc(F)c1Cl` [Crizotinib], the “BBB Permeable” value in series [1] is “poor and No”.

In turn, `O=C1Nc2ccc(Cl)cc2[C@@](C#CC2CC2)(C(F)(F)F)O1` [Efavirenz] gave a pIC50 at LRRK2 G2019S [2] (setting [4]) of less than 4.00. This molecule also showed a pKd on LRRK2 G2019S [3] of less than 4.00. In addition, the “BBB Permeable” value in series [1] is “supported by literature and Yes”.

Consider `O=C1Nc2ccc(I)cc2/C1=C/c1cc(Br)c(O)c(Br)c1` [GW 5074], for which the pIC50 on LRRK2 G2019S [2] (setting [4]) was greater than 8.29. Besides, on LRRK2 G2019S [3], the pKd was 6.10.

Regarding `C[C@H]1Oc2cc(cnc2N)-c2c(nn(C)c2C#N)CN(C)C(=O)c2ccc(F)cc21` [Lorlatinib], the brain penetration result in series [1] (statement in discussion) is recorded as “brain penetrant”.

For `Fc1ccc([C@@H]2CCNC[C@H]2COc2ccc3c(c2)OCO3)cc1` [Paroxetine], the pIC50 at LRRK2 G2019S [2] (setting [4]) was less than 4.00. The molecule also gave a pKd at LRRK2 G2019S [3] of less than 4.00. Also, the “BBB Permeable” value in series [1] is “supported by literature and Yes”.

For the molecule `CCN(CC)CCNC(=O)c1c(C)[nH]c(/C=C2\C(=O)Nc3ccc(F)cc32)c1C` [Sunitinib], the “BBB Permeable” value in series [1] is “supported by literature and Yes”.

Take `CCCc1nc(C)c2c(=O)[nH]c(-c3cc(S(=O)(=O)N4CCN(CC)CC4)ccc3OCC)nn12` [Vardenafil]: the pIC50 on LRRK2 G2019S [2] (values in text) was 4.33. Besides, the pKd on LRRK2 G2019S [3] is less than 4.00.
